Experimental data published in article PMC11724075, “Small-molecule-induced ERBB4 activation to treat heart failure” (Nature Communications, 2025).
“And” between values parts separate entries of the source, which are not always exact repeats. Equal entries are not always repeated.

Columns and labels:
ERBB2/ERBB4 = target: T1, ERBB2/ERBB4 (Homo sapiens, UniProt Q15303); assay: PathHunter U2OS ERBB2/ERBB4 dimerization assay; format: cell-based; conditions: for ERBB4/ERBB2 dimerization signal: relative to signal with 0.1 µM NRG1, single biological replicates
T1 construct: host or cells: U2OS (osteosarcoma cells), PathHunter engineered line
T1 sequence (Q15303 26-1308): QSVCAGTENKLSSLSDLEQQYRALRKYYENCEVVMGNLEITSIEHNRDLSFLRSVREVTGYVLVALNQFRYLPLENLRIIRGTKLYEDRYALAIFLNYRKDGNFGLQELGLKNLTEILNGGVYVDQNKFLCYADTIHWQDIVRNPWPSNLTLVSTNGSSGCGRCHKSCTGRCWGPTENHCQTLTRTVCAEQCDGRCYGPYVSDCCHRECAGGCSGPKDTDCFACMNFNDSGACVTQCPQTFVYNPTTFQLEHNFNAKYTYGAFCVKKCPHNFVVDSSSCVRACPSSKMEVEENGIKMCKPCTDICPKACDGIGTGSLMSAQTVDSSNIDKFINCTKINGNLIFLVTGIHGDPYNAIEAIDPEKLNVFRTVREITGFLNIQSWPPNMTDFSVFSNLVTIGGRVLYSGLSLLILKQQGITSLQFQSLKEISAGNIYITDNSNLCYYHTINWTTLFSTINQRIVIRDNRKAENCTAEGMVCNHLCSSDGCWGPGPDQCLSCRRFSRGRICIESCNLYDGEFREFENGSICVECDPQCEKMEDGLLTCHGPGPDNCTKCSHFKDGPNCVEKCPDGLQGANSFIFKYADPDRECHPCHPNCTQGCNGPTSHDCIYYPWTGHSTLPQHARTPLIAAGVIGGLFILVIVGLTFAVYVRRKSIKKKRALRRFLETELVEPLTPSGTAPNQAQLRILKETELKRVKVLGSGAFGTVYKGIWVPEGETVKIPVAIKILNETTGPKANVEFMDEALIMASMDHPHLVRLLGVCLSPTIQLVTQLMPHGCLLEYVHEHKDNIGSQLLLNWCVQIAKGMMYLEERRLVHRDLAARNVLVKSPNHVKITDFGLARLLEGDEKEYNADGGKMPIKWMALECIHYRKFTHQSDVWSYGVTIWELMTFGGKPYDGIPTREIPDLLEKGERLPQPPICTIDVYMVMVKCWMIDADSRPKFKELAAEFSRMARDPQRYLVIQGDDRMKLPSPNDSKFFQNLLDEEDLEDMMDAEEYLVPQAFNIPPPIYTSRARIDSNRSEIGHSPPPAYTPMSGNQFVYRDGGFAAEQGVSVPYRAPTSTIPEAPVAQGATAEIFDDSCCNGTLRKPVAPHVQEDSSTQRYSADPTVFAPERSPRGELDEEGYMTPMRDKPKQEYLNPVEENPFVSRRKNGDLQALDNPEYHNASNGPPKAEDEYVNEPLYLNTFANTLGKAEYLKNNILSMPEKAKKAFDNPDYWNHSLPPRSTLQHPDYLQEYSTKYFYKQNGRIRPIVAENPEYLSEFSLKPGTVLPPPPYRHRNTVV
T1 sequence (P04626 23-1255 partner): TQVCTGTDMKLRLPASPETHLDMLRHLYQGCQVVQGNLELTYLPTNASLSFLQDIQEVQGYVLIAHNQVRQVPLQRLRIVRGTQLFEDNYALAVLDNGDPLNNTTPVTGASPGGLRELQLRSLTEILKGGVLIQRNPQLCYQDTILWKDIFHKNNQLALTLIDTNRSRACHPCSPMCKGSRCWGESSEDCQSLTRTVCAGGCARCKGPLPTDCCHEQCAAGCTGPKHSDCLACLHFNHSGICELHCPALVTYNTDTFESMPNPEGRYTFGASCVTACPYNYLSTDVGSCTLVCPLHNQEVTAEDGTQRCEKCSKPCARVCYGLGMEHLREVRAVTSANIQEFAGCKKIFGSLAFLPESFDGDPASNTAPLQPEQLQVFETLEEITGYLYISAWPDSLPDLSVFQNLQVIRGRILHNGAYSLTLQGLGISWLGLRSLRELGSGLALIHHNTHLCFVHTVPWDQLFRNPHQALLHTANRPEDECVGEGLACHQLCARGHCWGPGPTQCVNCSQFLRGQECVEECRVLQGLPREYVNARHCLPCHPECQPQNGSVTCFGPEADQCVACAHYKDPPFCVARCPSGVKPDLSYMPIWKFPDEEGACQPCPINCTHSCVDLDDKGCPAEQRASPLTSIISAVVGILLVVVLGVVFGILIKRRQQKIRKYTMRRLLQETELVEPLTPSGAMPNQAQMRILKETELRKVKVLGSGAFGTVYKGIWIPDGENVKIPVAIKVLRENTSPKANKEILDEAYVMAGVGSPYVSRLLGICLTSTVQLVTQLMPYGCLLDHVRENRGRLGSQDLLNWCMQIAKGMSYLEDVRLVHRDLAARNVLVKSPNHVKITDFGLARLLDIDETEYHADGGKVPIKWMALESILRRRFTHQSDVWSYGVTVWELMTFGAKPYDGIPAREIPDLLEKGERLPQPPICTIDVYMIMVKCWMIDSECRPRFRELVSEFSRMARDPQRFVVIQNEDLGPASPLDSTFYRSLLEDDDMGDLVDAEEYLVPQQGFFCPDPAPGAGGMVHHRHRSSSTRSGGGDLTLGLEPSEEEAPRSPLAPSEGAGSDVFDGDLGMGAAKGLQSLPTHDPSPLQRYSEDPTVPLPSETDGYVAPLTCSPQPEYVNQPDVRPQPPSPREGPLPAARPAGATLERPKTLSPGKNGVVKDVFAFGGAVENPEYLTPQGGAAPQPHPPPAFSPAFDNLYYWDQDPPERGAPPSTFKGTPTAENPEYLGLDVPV
Description: PathHunter U2OS ERBB4/ERBB4 (osteosarcoma cells; Eurofins, 93-0961C3), U2OS ERBB2/ERBB4 (osteosarcoma cells; Eurofins, 493-0960C3), ERBB2/ERBB3 (osteosarcoma cells; Eurofins, 93-1042C3) and ERBB1/ERBB1 (osteosarcoma cells; Eurofins, 93-0989C3) dimerization cell lines were cultured according to the manufacturer’s instructions. Briefly, cells were cultured in Cell Culture Reagent 103 (Eurofins, 92-3103 G) supplemented with 250 µg/mL Hygromycin B (Eurofins, 92-0029) and 500 µg/mL G418 (Eurofins, 92-0030), and were maintained at 37 °C in humidified atmosphere of 5% CO2. HCFs (Innoprot, P10454) were cultured in fibroblast medium (Innoprot, P60108) supplemented with 10% (v/v) fetal bovine serum (FBS, Innoprot), 10% (v/v) fibroblast growth supplement (Innoprot), and 1% (v/v) penicillin/streptomycin solution (Innoprot). iAMs[33] (kindly provided by LUMC) were cultured in Advanced DMEM F-12 (Thermo Fisher Scientific, 12634028) supplemented with 2% (v/v) heat-inactivated FBS (Thermo Fisher Scientific, 10270106), 1% (v/v) penicillin/streptomycin (10,000 units/mL and 10 mg/mL respectively, Thermo Fisher Scientific, 15140122), 1× GlutaMAX (Thermo Fisher Scientific, 35050061), and 100 ng/mL doxycycline (Tocris, 4090) for proliferation. To induce differentiation, iAMs were transferred to medium without doxycycline.
U2OS ERBB4/ERBB4 dimerization cells were seeded at a density of 5 × 10^4 cells/well in 100 µL Cell Plating 0 Reagent, in white 96-well plates (PerkinElmer, 6005680) and incubated for 24 h at 37 °C, 5% CO2. […] Next, 110 µL PathHunter Flash Detection Reagent was added to each well and incubated at RT for 1 h after which the luminescence signal was measured using the Luminoskan Ascent (Thermo Fisher Scientific). […] The same experimental set-up was used for the U2OS ERBB2/ERBB4, U2OS ERBB2/ERBB3 and U2OS ERBB1/ERBB1 dimerization cell lines.

Erbb4-null mice [1] = assay: AngII-induced myocardial fibrosis in Erbb4-null mice, Masson's trichrome fibrosis; format: in vivo, mouse; design: Perivascular fibrosis: dose or concentration left out as unconfirmed
Description: Four weeks after implantation, cardiac ultrasound was performed, mice were euthanized, and hearts were collected. A similar set-up was used for the 1-week study (Alzet, model 1007D) in male mice (n = 9-10 mice in every group).
(§1) Floxed Erbb4 mice (Erbb4^f/f; C57BL/6N; 129-Erbb4tm1Fej/Mmucd, MMRRC, #010439-UCD) were crossed with CAGGCre-ER^TM mice (Jackson Laboratory, 004682) containing the Tg(CAG-cre/Esr1*)5Amc transgene that expresses Cre recombinase under the control of a chicken beta actin promoter/enhancer coupled to the human cytomegalovirus immediate-early gene enhancer, resulting in expression of tamoxifen-inducible Cre-ERT in most cell types. To induce Cre recombinase-mediated deletion of Erbb4, eleven-week-old female and male iCAGGCre-ER^TM/Erbb4^f/f mice were intraperitoneally injected with tamoxifen (Merck, T5648; 10 mg/kg; in corn oil) daily for 5 consecutive days.
Hearts were fixed in 4% PFA, paraffin-embedded, and cut into 5-µm sections. Images were acquired with an Olympus BX43 microscope (Olympus Stream Motion Software) or a CELENA® S Digital Imaging System and analyzed with ImageJ 2.14.0 software. Collagen distribution was visualized by Masson’s trichrome staining. Cardiac total fibrosis was expressed as the ratio of positively stained fibrotic area (blue) to the total area and perivascular fibrosis as the ratio of fibrotic area to vascular lumen area. Scar size was determined by measuring the scar length over the […]. Hypertrophy and vascularisation were visualized via an isolectin-B4/WGA/DAPI staining. Quantification was performed by a person blinded to the treatment protocol.

Erbb4-null mice [2] = assay: Acute high-dose DOX-induced cardiotoxicity, cTnI ELISA, female Erbb4-null mice; format: in vivo, mouse; design: In vivo DOX experiment in male+female Erbb4-null mice with EF-1 (cTnI): unit not given here
Description: DOX (20 mg/kg; Pfizer, 4222) was administered intraperitoneally once on day 4 to induce cardiotoxicity. On day 7, mice were euthanized, serum samples were collected via the retrobulbar sinus and hearts were excised.
as §1
Serum samples were centrifuged for 15 min (1000 × g) at 4 °C and analyzed using a mouse cardiac Troponin I Type 3 ELISA kit (Novus Biologicals, NBP3–00456), according to the manufacturer’s instructions. Briefly, a 96-well microplate was coated with an anti-mouse TNNI3/cTnI primary antibody (Capture Antibody Solution). Standard solution or samples (100 μL) were added to the plate and incubated for 90 min at 37 °C. […]

[3] = tested on: Akt phosphorylation (pAkt/Akt); design: method as in PMID 14654373; conditions: cited from earlier work

Row | Compound | EC50 (ERBB2/ERBB4) [µM] | ERBB4/ERBB2 dimerization signal (ERBB2/ERBB4; 3.125e-8 M) | ERBB4/ERBB2 dimerization signal (ERBB2/ERBB4; 6.25e-8 M) | ERBB4/ERBB2 dimerization signal (ERBB2/ERBB4; 1.25e-7 M) | ERBB4/ERBB2 dimerization signal (ERBB2/ERBB4; 2.5e-7 M) | ERBB4/ERBB2 dimerization signal (ERBB2/ERBB4; 5e-7 M) | ERBB4/ERBB2 dimerization signal (ERBB2/ERBB4; 1e-6 M) | ERBB4/ERBB2 dimerization signal (ERBB2/ERBB4; 2e-6 M) | ERBB4/ERBB2 dimerization signal (ERBB2/ERBB4; 4e-6 M) | ERBB4/ERBB2 dimerization signal (ERBB2/ERBB4; 8e-6 M) | ERBB4/ERBB2 dimerization signal (ERBB2/ERBB4; 1.6e-5 M) | ERBB4/ERBB2 dimerization signal (ERBB2/ERBB4; 3.2e-5 M) | efficacy in ERBB2/ERBB4 dimerization assay at the highest concentration (in words) (ERBB2/ERBB4; highest concentration) | Total fibrosis (Erbb4-null mice [1]; male+female Erbb4-null mice, AngII/EF-1, AngII 400 ng/kg/day, single animals) | Perivascular fibrosis (Erbb4-null mice [1]; male+female Erbb4-null mice, AngII/EF-1, single animals) | effect on AngII-induced interstitial or perivascular fibrosis in Erbb4-null mice (in words) (Erbb4-null mice [1]; mouse, in vivo) | effect on DOX-induced increase in cTnI plasma levels (in words) (Erbb4-null mice [2]; female Erbb4-null mice) | In vivo DOX experiment in male+female Erbb4-null mice with EF-1 (cTnI) (Erbb4-null mice [2]; male+female Erbb4-null mice, DOX/EF-1 group, individual animals, Fig. 6d) | time of peak NRG1-induced Akt phosphorylation [3] [min]
1 | O=C(NC1CC1)C(Sc1nc2ccccc2c(=O)n1C1CCCC1)c1ccccc1 (stereo not shown) [EF-1] | > 32 | 0 | 10.52 and 1.76 and 3.95 and -0.62 and 8.84 and 32.1 and -4.84 and 13.1 | 11.16 and 1.7 and 0.22 and 2.37 and 10.84 and 42.31 and 0.8 and 15.8 | 14.28 and 2.37 and -0.2 and 2.18 and 11.16 and 44.62 and 2.21 and 32.89 | 15.8 and 3.34 and -0.84 and 2.5 and 14.03 and 46.76 and 10.28 and 38.19 | 17.47 and 6.72 and 2.79 and 5.79 and 18.63 and 53.25 and 13.21 and 49.02 | 23.23 and 10.36 and 6.17 and 10.55 and 22.36 and 58.49 and 25.9 and 62.1 | 39.65 and 19.88 and 18.63 and 20.82 and 41.51 and 62.22 and 30.3 and 62.16 | 43.57 and 23.14 and 20.33 and 27.19 and 40.97 and 69.15 and 32.21 and 63.74 | 49.69 and 37.91 and 30.09 and 36.81 and 54.68 and 124.7 and 60.3 and 94.64 | 99.26 and 72.09 and 64.59 and 71.61 and 99.65 and 139.93 and 119.85 and 114.61 | like the natural ligand NRG1 | 3.25 and 2.45 and 2.12 and 2.92 and 4.07 | 0.6515 and 1.352 and 0.6814 and 0.7388 and 1.066 | did not significantly prevent interstitial or perivascular AngII-induced fibrosis | did not prevent the increase in cTnI plasma levels | 3.884 and 54.574 and 87.9141 and 7.084 and 54.129 and 15.8453 and 39.5225 and 62.9332 | –
2 | neuregulin-1 [NRG1] | – | – | – | – | – | – | – | – | – | – | – | – | – | – | – | – | – | – | 15
